What follows are compounds tested against AM2 S31N (serine→asparagine mutation at residue 31 in the M2 protein) (Influenza A virus, UniProt P0DOF5, S31N). Conditions: not given.
Assay type: cell-based, influenza virus A/Udorn/72
For COc1ccc(-c2cc(CNC34CC5CC(CC(C5)C3)C4)on2)cc1 [Example 122a, N-((3-(4-methoxyphenyl)isoxazol-5-yl)methyl)adamantan-1-amine], the “S31N OOcyte Inhibition at 100 uM (%)” value was “A (key: (A)=31-95%; (B)=0-30%)”.
c1c(CNC23CC4CC(CC(C4)C2)C3)noc1CN1CCOCC1 [Example 106a, N-((5-(morpholinomethyl)isoxazol-3-yl)methyl)adamantan-1-amine] was tested, and the “S31N OOcyte Inhibition at 100 uM (%)” value was “B (key: (A)=31-95%; (B)=0-30%)”.
For c1coc(-c2nc(CNC34CC5CC(CC(C5)C3)C4)no2)c1 [Example 160a, N-((5-(furan-2-yl)-1,2,4-oxadiazol-3-yl)methyl)adamantan-1-amine], the “S31N OOcyte Inhibition at 100 uM (%)” value was “A (key: (A)=31-95%; (B)=0-30%)”.
With Oc1cc(-c2ccoc2)ccc1CNC12CC3CC(CC(C3)C1)C2 [Example 46a] the “S31N OOcyte Inhibition at 100 uM (%)” value was “A (key: (A)=31-95%; (B)=0-30%)”.
For Clc1cc2cc(CNC34CC5CC(CC(C5)C3)C4)sc2s1 [Example 173a, Adamantan-1-yl-(5-chloro-thieno[2,3-b]thiophen-2-ylmethyl)-amine], the “S31N OOcyte Inhibition at 100 uM (%)” value was “A (key: (A)=31-95%; (B)=0-30%)”.
With c1csc(-c2ccc(CNC34CC5CC(CC(C5)C3)C4)nc2)c1 [Example 55a, Adamantan-1-yl-(5-thiophen-2-yl-pyridin-2-ylmethyl)-amine] the “S31N OOcyte Inhibition at 100 uM (%)” value was “A (key: (A)=31-95%; (B)=0-30%)”.
For c1ccc(-c2cc(CNC34CC5CC(CC(C5)C3)C4)on2)cc1 [Example 164a], the “S31N OOcyte Inhibition at 100 uM (%)” value was “A (key: (A)=31-95%; (B)=0-30%)”.
For Oc1cc(-c2cccs2)ccc1CNC12CC3CC(CC(C3)C1)C2 [Example 49a], the “S31N OOcyte Inhibition at 100 uM (%)” value was “B (key: (A)=31-95%; (B)=0-30%)”.
c1cc(-c2cc(CNC34CC5CC(CC(C5)C3)C4)no2)cs1 [Example 150a, Adamantan-1-yl-(5-thiophen-3-yl-isoxazol-3-ylmethyl)-amine] was tested, and the “S31N OOcyte Inhibition at 100 uM (%)” value was “A (key: (A)=31-95%; (B)=0-30%)”.
In the case of OC12CC3CC(C1)CC(NCc1cc(-c4ccccc4)on1)(C3)C2 [Example 194a, (1s,3r,5R,7S)-3-(((5-phenylisoxazol-3-yl)methyl)amino)adamantan-1-ol], the “S31N OOcyte Inhibition at 100 uM (%)” value is reported as “A (key: (A)=31-95%; (B)=0-30%)”.
In the case of Cc1ccc(-c2nc(CNC34CC5CC(CC(C5)C3)C4)no2)cc1 [Example 128a, N-((5-(p-tolyl)-1,2,4-oxadiazol-3-yl)methyl)adamantan-1-amine], the “S31N OOcyte Inhibition at 100 uM (%)” value is reported as “A (key: (A)=31-95%; (B)=0-30%)”.
c1cc(C2CC2)ccc1CNC12CC3CC(CC(C3)C1)C2 [Example 9a, N-(4-Cyclopropylbenzyl)adamantan-1-amine] was tested, and the “S31N OOcyte Inhibition at 100 uM (%)” value was “A (key: (A)=31-95%; (B)=0-30%)”.
For Cc1ccc(CNC23CC4CC(CC(C4)C2)C3)cc1 [Example 8a, N-(4-Methylbenzyl)adamantan-1-amine], the “S31N OOcyte Inhibition at 100 uM (%)” value was “B (key: (A)=31-95%; (B)=0-30%)”.
For Cc1cc(CNC23CC4CC(CC(C4)C2)C3)no1 [Example 95a, N-((5-methylisoxazol-3-yl)methyl)adamantan-1-amine], the “S31N OOcyte Inhibition at 100 uM (%)” value was “A (key: (A)=31-95%; (B)=0-30%)”.
Clc1cccc2cc(CNC34CC5CC(CC(C5)C3)C4)sc12 [Example 183a, Adamantan-1-yl-(7-chloro-benzo[b]thiophen-2-ylmethyl)-amine] was tested, and the “S31N OOcyte Inhibition at 100 uM (%)” value was “B (key: (A)=31-95%; (B)=0-30%)”.
In the case of CCc1nc(CNC23CC4CC(CC(C4)C2)C3)no1 [Example 165a], the “S31N OOcyte Inhibition at 100 uM (%)” value is reported as “A (key: (A)=31-95%; (B)=0-30%)”.
With c1csc(-c2ccc(CNC34CC5CC(CC(C5)C3)C4)cn2)c1 [Example 58a, N-((6-(thiophen-2-yl)pyridin-3-yl)methyl)adamantan-1-amine] the “S31N OOcyte Inhibition at 100 uM (%)” value was “A (key: (A)=31-95%; (B)=0-30%)”.

Same assay, conditions: pH 5.5
With c1nc(N2CCCCC2)ncc1CNC12CC3CC(CC(C3)C1)C2 [Example 58b, N-((2-(piperidin-1-yl)pyrimidin-5-yl)methyl)adamantan-1-amine] the “S31N OOcyte Inhibition at 100 uM (%)” value was “A (key: (A)=31-95%; (B)=0-30%)”.
c1csc(-c2nc(CNC34CC5CC(CC(C5)C3)C4)cs2)c1 [Example 11b, N-((2-(thiophen-2-yl)thiazol-4-yl)methyl)adamantan-1-amine] was tested, and the “S31N OOcyte Inhibition at 100 uM (%)” value was “A (key: (A)=31-95%; (B)=0-30%)”.
In the case of c1nc(CNC23CC4CC(CC(C4)C2)C3)sc1C1CC1 [Example 65b, Adamantan-1-yl-(5-cyclopropyl-thiazol-2-ylmethyl)-amine], the “S31N OOcyte Inhibition at 100 uM (%)” value is reported as “A (key: (A)=31-95%; (B)=0-30%)”.
With CCCc1cc(CNC23CC4CC(CC(C4)C2)C3)no1 [Example 26b, N-((5-propylisoxazol-3-yl)methyl)adamantan-1-amine] the “S31N OOcyte Inhibition at 100 uM (%)” value was “A (key: (A)=31-95%; (B)=0-30%)”.
For Cc1csc(-c2ccc(CNC34CC5CC(CC(C5)C3)C4)s2)c1 [Example 51b, N-((4′-Methyl-[2,2′-bithiophen]-5-yl)methyl)adamantan-1-amine], the “S31N OOcyte Inhibition at 100 uM (%)” value was “A (key: (A)=31-95%; (B)=0-30%)”.
In the case of CSc1ccc(-c2cc(CNC34CC5CCC(CC(C5)C3)C4)no2)cc1 [Example 91b, (1S,3R,8S)—N-((5-(4-(methylthio)phenyl)isoxazol-3-yl)methyl)tricyclo[4.3.1.13,8]undecan-1-amine], the “S31N OOcyte Inhibition at 100 uM (%)” value is reported as “A (key: (A)=31-95%; (B)=0-30%)”.
With CSc1ccccc1-c1ccc(CNC23CC4CC(CC(C4)C2)C3)nc1 [Example 67b, Adamantan-1-yl-[5-(2-methylsulfanyl-phenyl)-pyridin-2-ylmethyl]-amine] the “S31N OOcyte Inhibition at 100 uM (%)” value was “A (key: (A)=31-95%; (B)=0-30%)”.
In the case of Cc1ccc(-c2ccc(CNC34CC5CC(CC(C5)C3)C4)s2)o1 [Example 52b, N-((5-(5-Methylfuran-2-yl)thiophen-2-yl)methyl)adamantan-1-amine], the “S31N OOcyte Inhibition at 100 uM (%)” value is reported as “A (key: (A)=31-95%; (B)=0-30%)”.
For CSc1ccc(-c2cc(CNCC34CC5CC(CC(C5)C3)C4)no2)cc1 [Example 40b, 1-((3r,5r,7r)-adamantan-1-yl)-N-((5-(4-(methylthio)phenyl)isoxazol-3-yl)methyl)methanamine], the “S31N OOcyte Inhibition at 100 uM (%)” value was “A (key: (A)=31-95%; (B)=0-30%)”.
CCOc1ccc(-c2ccc(CNC34CC5CC(CC(C5)C3)C4)s2)cc1 [Example 49b, N-((5-(4-Ethoxyphenyl)thiophen-2-yl)methyl)adamantan-1-amine] was tested, and the “S31N OOcyte Inhibition at 100 uM (%)” value was “A (key: (A)=31-95%; (B)=0-30%)”.
c1sc(CNC23CC4CC(CC(C4)C2)C3)cc1C1CC1 [Example 48b, N-((4-Cyclopropylthiophen-2-yl)methyl)adamantan-1-amine] was tested, and the “S31N OOcyte Inhibition at 100 uM (%)” value was “A (key: (A)=31-95%; (B)=0-30%)”.
Cc1cccc(-c2ncc(CNC34CC5CC(CC(C5)C3)C4)cn2)c1 [Example 63b, N-((2-mtolylpyrimidin-5-yl)methyl)adamantan-1-amine] was tested, and the “S31N OOcyte Inhibition at 100 uM (%)” value was “A (key: (A)=31-95%; (B)=0-30%)”.
With Brc1ccsc1CNC12CC3CC(CC(C3)C1)C2 [Example 47b, N-((3-Bromothiophen-2-yl)methyl)adamantan-1-amine] the “S31N OOcyte Inhibition at 100 uM (%)” value was “B (key: (A)=31-95%; (B)=0-30%)”.
With CC(C)c1cc(CNC23CC4CC(CC(C4)C2)C3)no1 [Example 27b, N-((5-isopropylisoxazol-3-yl)methyl)adamantan-1-amine] the “S31N OOcyte Inhibition at 100 uM (%)” value was “A (key: (A)=31-95%; (B)=0-30%)”.
With COc1ccc(-c2noc(CNC34CC5CC(CC(C5)C3)C4)n2)cc1OC [Example 35b, N-((3-(3,4-dimethoxyphenyl)-1,2,4-oxadiazol-5-yl)methyl)adamantan-1-amine] the “S31N OOcyte Inhibition at 100 uM (%)” value was “A (key: (A)=31-95%; (B)=0-30%)”.
In the case of COc1ccccc1-c1noc(CNC23CC4CC(CC(C4)C2)C3)n1 [Example 30b, N-((3-(2-methoxyphenyl)-1,2,4-oxadiazol-5-yl)methyl)adamantan-1-amine], the “S31N OOcyte Inhibition at 100 uM (%)” value is reported as “A (key: (A)=31-95%; (B)=0-30%)”.
For C[Si](C)(C)c1ccc(CNC23CC4CC(CC(C4)C2)C3)s1 [Example 75b, Adamantan-1-yl-(5-trimethylsilanyl-thiophen-2-ylmethyl)-amine], the “S31N OOcyte Inhibition at 100 uM (%)” value was “A (key: (A)=31-95%; (B)=0-30%)”.
With Clc1ccccc1-c1nc(CNC23CC4CC(CC(C4)C2)C3)no1 [Example 31b, N-((5-(2-chlorophenyl)-1,2,4-oxadiazol-3-yl)methyl)adamantan-1-amine] the “S31N OOcyte Inhibition at 100 uM (%)” value was “A (key: (A)=31-95%; (B)=0-30%)”.
With CC(C)Cc1nc(CNC23CC4CC(CC(C4)C2)C3)no1 [Example 22b, N-((5-isobutyl-1,2,4-oxadiazol-3-yl)methyl)adamantan-1-amine] the “S31N OOcyte Inhibition at 100 uM (%)” value was “A (key: (A)=31-95%; (B)=0-30%)”.
For Oc1cc(I)ccc1CNC12CC3CC(CC(C3)C1)C2 [Example 2b], the “S31N OOcyte Inhibition at 100 uM (%)” value was “A (key: (A)=31-95%; (B)=0-30%)”.
c1c(CNC23CC4CC(CC(C4)C2)C3)noc1C1CCCCC1 [Example 32b, N-((5-cyclohexylisoxazol-3-yl)methyl)adamantan-1-amine] was tested, and the “S31N OOcyte Inhibition at 100 uM (%)” value was “A (key: (A)=31-95%; (B)=0-30%)”.
COc1cccc(-c2cc(CNC34CC5CC(CC(C5)C3)C4)no2)c1 [Example 39b, N-((5-(3-methoxyphenyl)isoxazol-3-yl)methyl)adamantan-1-amine] was tested, and the “S31N OOcyte Inhibition at 100 uM (%)” value was “A (key: (A)=31-95%; (B)=0-30%)”.
In the case of CSc1ccccc1-c1cc(CNC23CC4CC(CC(C4)C2)C3)no1 [Example 42b, N-((5-(2-(methylthio)phenyl)isoxazol-3-yl)methyl)adamantan-1-amine], the “S31N OOcyte Inhibition at 100 uM (%)” value is reported as “A (key: (A)=31-95%; (B)=0-30%)”.
With Cn1cc(CNC23CC4CC(CC(C4)C2)C3)nn1 [Example 18b, N-((1-methyl-1H-1,2,3-triazol-4-yl)methyl)adamantan-1-amine] the “S31N OOcyte Inhibition at 100 uM (%)” value was “B (key: (A)=31-95%; (B)=0-30%)”.
With Oc1cc(-c2ccco2)ccc1CNC12CC3CC(CC(C3)C1)C2 [Example 7b, 2-((-Adamantan-1-ylamino)methyl)-5-(furan-2-yl)phenol] the “S31N OOcyte Inhibition at 100 uM (%)” value was “A (key: (A)=31-95%; (B)=0-30%)”.

From patent US9884832B2 (priority 2011, dated 2018)
